The text below walks through data of PubChem BioAssay (NCI).

Common to all, as to experiment: DTP human tumour cell line panel, 48 h
Assay [1] relates to HT29 colon.
Assay [2] deals with SW-620 colon.
The test system of assay [3] is 786-0 renal.
Assay [4] relates to ACHN renal.
In assay [5] the test system is SNB-75 CNS.
Assay [6] relates to K-562 leukemia.
Assay [7] has as its system M14 melanoma.
In assay [8] the test system is SK-MEL-28 melanoma.
In assay [9] the test system is U251 CNS.
Assay [10] concerns LOX IMVI melanoma.

Values joined by “and” are separate entries in the source; they are usually repeats but may differ in a detail not shown here. Identical values can stand only once.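 Five concentrations, 48 hours, 96-well plates. GI50: concentration for 50% inhibition of growth. TGI: concentration producing complete growth inhibition.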 Some results are limits rather than exact numbers.

As to `COc1ccc(/C=C\c2cc(OC)c(OC)c(OC)c2)c(NS(=O)(=O)c2ccc(C(C)(C)C)cc2)c1O`, the GI50 in [1] was 3.51 µM; in assay [2] it was 0.329 µM; in [3] it was 0.49 µM; in assay [4] it was 0.452 µM; in assay [5] it was 0.231 µM; in assay [6], 0.0714 µM. The GI50 is 0.191 µM in [7], 4.91 µM in [8], 0.597 µM in assay [9] and 0.667 µM in assay [10]. Also, the concentration for total growth inhibition (TGI) in [1] is 18.6 µM; in [2] it was 23.5 µM; in assay [3], 14.6 µM; in assay [4], 23.5 µM; in assay [5], 14.1 µM; in assay [6], above 100 µM. The concentration for total growth inhibition (TGI) in assay [7] was found to be 13.5 µM; in [8] it was 22.2 µM; in [9] it was 21.8 µM; in [10] it was 17.1 µM.
Regarding `CCCCC[C@@H](C/C=C/CCC(=O)NC/C(=C/Cl)[C@H]1C(=O)C(C)(C)C(=O)[C@@H](C)[C@@]1(C)O)OC`, the GI50 in assay [1] was 14.5 µM; in assay [2], 20.8 µM; in assay [3], 1.58 µM; in assay [4], 18 µM; in [5], 20.5 µM; in [6], 21.8 µM. Moreover, the GI50 in assay [7] is 16.9 µM; in assay [8] it was 18.1 µM; in assay [9], 20.1 µM; in [10], 18.8 µM. The TGI in [1] was 30.9 µM; in [2], 39.3 µM; in assay [3] it was 16.9 µM; in [4], 32.6 µM; in [5] it was 44.7 µM; in [6] it was 48.5 µM. Besides, the TGI in [7] turned out to be 31.2 µM; in assay [8], 33.8 µM; in assay [9], 37.1 µM; in assay [10], 38 µM.
`N/C(=N\C(N)=N\c1nc2ccccc2s1)c1cnccn1`: the GI50 is 2.87 µM in assay [1]; 3.68 µM in assay [2]; 2.97 µM in [3]; 2.51 µM in assay [4]; 2.15 µM in assay [5]; 3.69 µM in assay [6]. Also, the GI50 in assay [7] is 3.21 µM; in [8] it was 2.3 µM; in assay [9] it was 2.96 µM; in assay [10] it was 3.47 µM. Further, the TGI in assay [1] is above 100 µM; in assay [2], above 100 µM; in assay [3] it was above 100 µM; in [4], 6.6 µM; in [5] it was 15.3 µM; in [6], above 100 µM. The concentration for total growth inhibition (TGI) in [7] is above 100 µM; in assay [8] it was 6.06 µM; in [9], 14.9 µM; in assay [10], above 100 µM.
In the case of `CN(C)c1ccc(N=C2C=CC(=C(C#N)C#N)c3ccccc32)cc1`, the TGI in assay [1] amounted to 10.4 µM; in assay [2], 3.65 µM; in assay [3], 11.4 µM; in assay [4], 10.6 µM; in [5] it was 5.71 µM; in [6], 5.71 µM. Moreover, the TGI in [7] is 8.79 µM; in assay [8], 20.5 µM; in [9], 6.53 µM; in assay [10], 3.49 µM.
Turning to `COC(=O)[C@]1(C)CCC[C@]2(C)[C@@H]1CCC13C[C@@H](C=CO1)[C@@H](C)CC32O` (some centres undefined), the GI50 in assay [1] was 11 µM; in assay [2], above 100 µM; in assay [3] it was 89.5 µM; in assay [4], above 100 µM; in assay [5], 62.2 µM; in assay [6], 36.7 µM. For the same compound, the GI50 was 50.3 µM in [7], above 100 µM in assay [8], above 100 µM in [9] and above 100 µM in assay [10]. The TGI in [1], in [2], in assay [3], in [4], in [5] and in assay [6] was above 100 µM in each case. Besides, the total growth inhibition concentration (TGI) in assay [7], in assay [8], in assay [9] and in assay [10] was above 100 µM each time.
Consider `Nc1nc(=S)c2[nH]cnc2[nH]1`, for which the GI50 in assay [1] is 0.544 µM; in assay [2] it was 0.564 µM and 3.6 µM and 1.18 µM; in assay [3], 0.335 µM and 1.45 µM and 1.01 µM; in [4], 0.89 µM and 4.03 µM; in [6] it was 0.488 µM; in assay [7], 0.413 µM and 0.677 µM. In addition, the GI50 is 1.94 µM and 6.07 µM in assay [8]; 1.49 µM and 3.11 µM in assay [9]; 0.136 µM and 0.488 µM in assay [10]. For the same compound, the TGI is 121 µM and > 250 µM in [1]; 41.8 µM and 104 µM in [4]; > 86 µM and 45.8 µM and > 250 µM in [5]; 74.1 µM and 8.6 µM in [6]; 28.8 µM and 162 µM in assay [8]; > 100 µM and 241 µM and > 226 µM in assay [9]. Moreover, the TGI in [10] is 2.23 µM and 8.64 µM and 19.4 µM.
Consider `N#CCCN(CCC#N)c1ccc(C=Nc2ccc(F)cc2)cc1`, for which the TGI in [1], in [2], in assay [3], in assay [4], in [5] and in assay [6] was above 100 µM in each case. Moreover, the total growth inhibition concentration (TGI) in [7], in assay [8], in assay [9] and in assay [10] was above 100 µM each time.
Regarding `C=C1CC/C=C(\C)CC[C@H](C(=C)C)[C@@H](O)/C=C(/CO)CCC1O` (some centres undefined), the GI50 in [1] is above 100 µM; in [2] it was 72.8 µM; in assay [3] it was above 100 µM; in assay [4], above 100 µM; in assay [5], above 100 µM; in assay [6], 24.5 µM. In addition, the GI50 is 71.7 µM in assay [7], above 100 µM in assay [8], 85.2 µM in [9] and 50.4 µM in assay [10]. The total growth inhibition concentration (TGI) is above 100 µM in assay [1]; above 100 µM in assay [2]; above 100 µM in [3]; above 100 µM in [4]; above 100 µM in assay [5]; 69.7 µM in assay [6]. Besides, the concentration for total growth inhibition (TGI) in assay [7], in [8], in assay [9] and in [10] was above 100 µM throughout.
Take `Cc1nc2c(Br)cc(Br)cc2c(=O)n1-c1ccccc1NC1OCC(O)C(O)C1O` (centres undefined): the TGI is 66.2 µM and 53.5 µM in [1]; above 100 µM in assay [2]; > 100 µM and 32.6 µM in assay [3]; > 100 µM and 51.8 µM in [4]; > 100 µM and 53.2 µM in assay [5]; 46.6 µM and > 81.2 µM in [6]. In addition, the concentration for total growth inhibition (TGI) in [7] was 46.7 µM and > 100 µM; in assay [8], above 100 µM; in assay [9], above 100 µM; in [10], 97.7 µM and > 51.3 µM. In addition, the GI50 in [3] was 45.1 µM and 13.6 µM; in assay [6], 15.1 µM and > 32.7 µM; in assay [9] it was 38.3 µM and 16.1 µM.
